Data published in patent US10092492B2, “Cosmetic composition comprising spiculisporic acid and at least one surfactant” (L'OREAL, priority 2013, dated 2018).
Values joined by “and” are separate entries in the source; they are usually repeats but may differ in a detail not shown here. Equal entries are not always repeated. “Also recorded” adds a separate entry of the source.

Assays:
[1] = Example 1: pH and aspect of S-acid solutions neutralized with NaOH (30%) or KOH (50%), stabilized at 4° C. and RT; type: physicochemical; design: key to aspect of the solution (precipitation mark): The marked solutions (*) correspond to precipitated solutions; settings: for pH T4° C. 24 h / pH T4° C. 30 days / pH TRT 24 h / pH TRT 30 days / pH TRT t0: R1=2
Excerpt: In order to neutralize spiculisporic acid (S-acid), two moles of base were used for one mole of S-acid, i.e., R1=2.
Increasing concentration ranges of S-acid from 1% to 10% were achieved, either with NaOH (solution at 30% m/m), or with KOH (solution at 50% m/m).
The solutions were made twice (A and B) in order to evaluate the reproducibility of the results. All the ranges of the neutralized solutions with both bases are limpid at t0 and the pH values obtained range from 5.19 to 6.79.
The marked solutions (*) correspond to precipitated solutions.

[2] = Example 2: aspect and pH of S-acid pre-solubilized with KOH (R1=2) in association with surfactants; type: physicochemical; settings: for pH t0 RT / pH RT, 20 days after storage / pH T = 4° C., 20 days after storage: KOH R1=2
Excerpt: Solutions, containing S-acid at 4% or 8% (neutralized with an amount of KOH calculated in order to obtain the di-potassium salt of S-acid, i.e., R1=2) and surfactants, were made.

[3] = Example 2: pH and macroscopic observation of S-acid neutralized with NaOH (R1=1.1) with surfactants, stored at 4° C.; type: physicochemical; settings: for Macroscopic observation after 12 days after storage: stored in the dark at 4° C., listed as S-acid alone
Procedure: Solutions, containing S-acid at 4% or 8% (neutralized with an amount of NaOH calculated in order to obtain R1=1.1) and surfactants, were made, as shown in the table below:
The solutions were prepared according to the following procedure:
S-acid aqueous solution is prepared. The base is added under stirring. The resulting mixture is stirred at 40° C. Then the surfactant is added under stirring. The solution is then stored in the dark at 4° C.

[4] = cited from earlier work
[5] = KOH solution at 50%, S-acid 1%, A and B
[6] = KOH solution at 50%, S-acid 2%, A and B
[7] = NaOH solution at 30%, S-acid 1%, A and B
[8] = NaOH solution at 30%, S-acid 2%, A and B
[9] = S-acid 4% MA, surfactant 4% where present

CCCCCCCCCCC(C(=O)O)C1(C(=O)O)CCC(=O)O1 (centres unmarked) [S-acid, 4,5-dicarboxy-4-pentadecanolide]
pH T4° C. 24 h [1, 5]: 6.09 and 5.26
pH T4° C. 30 days [1, 5]: 5.86 and 5.39
pH TRT 24 h [1, 5]: 6.03 and 5.28
pH TRT 30 days [1, 5]: 5.69 and 5.18
pH TRT t0 [1, 5]: 5.93 and 5.22
pH T4° C. 24 h [1, 6]: 5.48 and 5.61
pH T4° C. 30 days [1, 6]: 5.46 and 5.53
pH TRT 24 h [1, 6]: 5.67 and 5.59
pH TRT 30 days [1, 6]: 5.39 and 5.59
pH TRT t0 [1, 6]: 5.4 and 5.19
aspect of the solution (precipitation mark) ([1]; KOH, S-acid 2%, 4° C. 24 h): *
aspect of the solution (precipitation mark) ([1]; KOH, S-acid 2%, 4° C. 30 days): *
aspect of the solution (precipitation mark) ([1]; KOH, S-acid 2%, RT 24 h): *
aspect of the solution (precipitation mark) ([1]; KOH, S-acid 2%, RT 30 days): *
pH T4° C. 24 h [1, 7]: 5.78 and 5.49
pH T4° C. 30 days [1, 7]: 5.69 and 5.41
pH TRT 24 h [1, 7]: 5.78 and 5.49
pH TRT 30 days [1, 7]: 5.59 and 5.42
pH TRT t0 ([1]; NaOH solution at 30%, S-acid 1%, duplicate solutions A and B): 5.66 and 5.37
pH T4° C. 24 h [1, 8]: 5.7 and 5.78
pH T4° C. 30 days [1, 8]: 5.72 and 5.69
pH TRT 24 h [1, 8]: 5.7 and 5.74
pH TRT 30 days [1, 8]: 5.64 and 5.49
pH TRT t0 ([1]; NaOH solution at 30%, S-acid 2%, duplicate solutions A and B): 5.64 and 5.6
aspect of the solution (precipitation mark) ([1]; NaOH, S-acid 2%, 4° C. 24 h): *
aspect of the solution (precipitation mark) ([1]; NaOH, S-acid 2%, 4° C. 30 days): *
aspect of the solution (precipitation mark) ([1]; NaOH, S-acid 2%, RT 30 days): *
stability of the solutions after 30 days at 4° C. ([1]; from 2% of S-acid, both bases (NaOH, KOH)): crystallization
pH t0 RT ([2]; S-acid 4% MA, surfactant 4% active material where present): 5.97
pH RT, 20 days after storage [2, 9]: 6.02
pH T = 4° C., 20 days after storage [2, 9]: 6.01
result after 20 days of storage at 4° C. (in words) ([2]; S-acid 4%, KOH R1=2, surfactant 4% where present): precipitation
pH RT, 20 days after storage ([2]; S-acid 8% MA, no surfactant): 6.47
pH T = 4° C., 20 days after storage ([2]; S-acid 8% MA, no surfactant): 6.47
pH t0 RT ([2]; S-acid 8% MA, no surfactant): 6.43
result after 20 days of storage at 4° C. (in words) ([2]; S-acid 8%, KOH R1=2, no surfactant): precipitation
pH t0 RT ([3]; S-acid 4% MA, NaOH R1=1.1): 4.89
Macroscopic observation after 12 days after storage ([3]; S-acid 4% MA, NaOH R1=1.1): precipitation; also recorded: precipitate
pH t0 RT ([3]; S-acid 8% MA, NaOH): 5.11
Macroscopic observation after 12 days after storage ([3]; S-acid 8% MA, NaOH): precipitation; also recorded: precipitate
solubility in water at a high temperature ([4]; high temperature): partly soluble
solubility in ethanol ([4]; room temperature): soluble
solubility in fats ([4]; room temperature): insoluble
solubility in water ([4]; room temperature): insoluble
